The text below walks through data of patent US12370182B2, “Bicyclic derivatives as GABAA A5 receptor modulators” (RICHTER GEDEON NYRT., priority 2018, dated 2025).

The target of this experiment is human recombinant GABAA α5β3γ2 receptor (Homo sapiens (Human), UniProt P18507+P31644). Nature of the experiment: Binding assay, [3H]Ro151788 displacement on membranes of HEK cells. The conditions noted are these: 0.5 nM [3H]Ro151788, 60 minutes at 4° C., Cheng-Prusoff; read-out: hGABAA α5 Ki. How it is done:
The GABAA α5β3γ2 protein used for the receptor binding assay was derived from membranes produced from HEK cells (Millipore CYL3073) expressing the human recombinant GABAA α5β3γ2 receptor. Cells were stored and cultured in-house according to the instructions provided by the vendor (Millipor). Cell pellet was homogenized in 10 times modified Krebs Henseleit buffer (membrane preparation buffer): 20 mM Tris, 120 mM NaCl, 100 mM KCl, 25 mM CaCl2) and 25 mM MgCl2 pH=7.4 at 4° C. using Ultra Turrax (Janke&Kunkel) maximal speed for 15 seconds. The homogenate was centrifuged at 40,000 g for 30 minutes at 4° C. Supernatant was discarded and the resulting pellet was washed in membrane preparation buffer. Pellet was resuspended in membrane preparation buffer and aliquots of 1.4 mL ampulles were stored at −70° C. until use.
Receptor binding assays were performed in 96-well format in deep-well plates. For each 96-well plate one ampulle of membrane homogenate was thawed and diluted in binding buffer (50 mM Tris pH=7.4, 100 mM KCl) and 200 μL was dispensed into each well. Radioligand [^3H]Ro151788 (Perkin Elmer: NET757250UC) was prepared in binding buffer and added to each well in 50 μL volume to give final concentration of 0.5 nM. Test compounds in suitable concentration(s) were added in additional 50 μL. The final assay volume was 300 μL. Incubation was carried out for 60 minutes at 4° C. For non-specific binding 10 μM unlabeled diazepam was used. After incubation samples were filtered over UniFilter® GF/B™ using Filtermate Harvester (Perkin Elmer) and washed with 5×1 mL binding buffer. The plate was dried at 40° C. for an hour and 40 μL Microscint (Perkin Elmer) scintillation cocktail was added to each well. The plate was read in Microbeta (Perkin Elmer).
The specific radioligand binding (SB) was defined as the difference between total binding (Tot) and the non-specific binding (NSB). Results are expressed as a percent inhibition of specific binding obtained in the presence of compound of interest.
For IC50 and Ki determination a minimum of six drug concentrations in triplicate were used. […] Ki values (i.e. inhibition constants) were calculated using the Cheng-Prusoff equation Ki=IC50/[1+(L/KD)], where [L] is the radioligand concentration and KD the affinity of the labelled ligand for receptor. KD was determined from the Saturation analyses.

Sequence of human recombinant GABAA α5β3γ2 receptor (P31644 32-462): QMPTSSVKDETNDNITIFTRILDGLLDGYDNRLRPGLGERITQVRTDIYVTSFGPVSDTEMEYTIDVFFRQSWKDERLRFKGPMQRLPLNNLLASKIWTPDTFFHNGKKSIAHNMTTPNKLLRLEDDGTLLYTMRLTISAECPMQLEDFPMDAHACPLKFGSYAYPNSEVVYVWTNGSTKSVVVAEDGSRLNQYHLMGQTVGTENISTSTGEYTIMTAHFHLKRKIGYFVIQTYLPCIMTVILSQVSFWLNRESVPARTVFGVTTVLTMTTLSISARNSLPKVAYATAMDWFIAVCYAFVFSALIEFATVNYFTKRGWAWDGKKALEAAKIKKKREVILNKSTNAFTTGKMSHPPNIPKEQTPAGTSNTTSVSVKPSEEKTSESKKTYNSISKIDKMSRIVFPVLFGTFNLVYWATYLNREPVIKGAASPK
Sequence of human recombinant GABAA α5β3γ2 receptor (P28472 26-473 partner): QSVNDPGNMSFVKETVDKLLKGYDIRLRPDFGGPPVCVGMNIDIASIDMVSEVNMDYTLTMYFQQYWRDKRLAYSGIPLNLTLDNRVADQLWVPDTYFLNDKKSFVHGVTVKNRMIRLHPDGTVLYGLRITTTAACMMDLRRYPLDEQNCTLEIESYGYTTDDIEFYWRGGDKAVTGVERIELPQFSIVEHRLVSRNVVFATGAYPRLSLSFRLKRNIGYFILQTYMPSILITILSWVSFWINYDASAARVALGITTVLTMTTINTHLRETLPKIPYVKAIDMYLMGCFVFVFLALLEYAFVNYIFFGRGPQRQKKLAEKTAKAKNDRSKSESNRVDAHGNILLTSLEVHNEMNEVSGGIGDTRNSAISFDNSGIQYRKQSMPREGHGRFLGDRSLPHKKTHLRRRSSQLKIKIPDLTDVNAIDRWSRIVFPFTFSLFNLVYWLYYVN
Sequence of human recombinant GABAA α5β3γ2 receptor (P18507 40-475): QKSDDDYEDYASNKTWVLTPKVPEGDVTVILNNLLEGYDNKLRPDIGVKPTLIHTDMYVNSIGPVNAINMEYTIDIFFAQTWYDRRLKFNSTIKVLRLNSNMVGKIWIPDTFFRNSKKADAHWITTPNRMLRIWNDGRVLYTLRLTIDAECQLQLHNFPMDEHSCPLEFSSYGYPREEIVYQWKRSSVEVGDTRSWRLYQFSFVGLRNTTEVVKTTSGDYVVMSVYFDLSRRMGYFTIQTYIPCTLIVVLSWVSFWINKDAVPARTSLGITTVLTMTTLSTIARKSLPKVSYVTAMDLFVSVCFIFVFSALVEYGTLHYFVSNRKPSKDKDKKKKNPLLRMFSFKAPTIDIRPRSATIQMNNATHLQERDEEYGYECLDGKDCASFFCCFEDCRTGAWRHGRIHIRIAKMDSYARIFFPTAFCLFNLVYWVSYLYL

For orientation: Ki means the equilibrium dissociation constant of an inhibitor or competing ligand from its target. Turning to `Cc1onc(-c2ccc(F)cc2)c1COc1ccc2c(n1)CCN(C(=O)C1CC1)C2` [Example 5, 6-cyclopropanecarbonyl-2-{[3-(4-fluorophenyl)-5-methyl-1,2-oxazol-4-yl]methoxy}-5,6,7,8-tetrahydro-1,6-naphthyridine], the Ki worked out at 7.8 nM.
The result for `Cc1onc(-c2ccc(F)cc2)c1COc1ccc2c(n1)CCN(C(=O)N(C)C)C2` [Example 83, 2-{[3-(4-fluorophenyl)-5-methyl-1,2-oxazol-4-yl]methoxy}-N,N-dimethyl-5,6,7,8-tetrahydro-1,6-naphthyridine-6-carboxamide] reads 3.8 nM; that for `Cc1nnn(-c2ccc(F)cc2)c1COc1ccc2c(n1)CN(C(=O)C1CCOC1)C2` (centres unmarked) [Example 62, 1-(4-fluorophenyl)-4-methyl-5-({[6-(oxolane-3-carbonyl)-5H,6H,7H-pyrrolo[3,4-b]pyridin-2-yl]oxy}methyl)-1H-1,2,3-triazole], 5.7 nM.
The result for `Cc1nnn(-c2ccc(Cl)cc2)c1COc1ccc2c(n1)CCN(C(=O)c1ccncc1)C2` [Example 33, 2-{[1-(4-chlorophenyl)-4-methyl-1H-1,2,3-triazol-5-yl]methoxy}-6-(pyridine-4-carbonyl)-5,6,7,8-tetrahydro-1,6-naphthyridine] reads 14 nM.
In the case of `Cc1nnn(-c2ccc(F)cc2)c1COc1ccc2c(n1)CCN(C(=O)C1CC(=O)N(C)C1)C2` (centres unmarked) [Example 21, 4-(2-{[1-(4-fluorophenyl)-4-methyl-1H-1,2,3-triazol-5-yl]methoxy}-5,6,7,8-tetrahydro-1,6-naphthyridine-6-carbonyl)-1-methylpyrrolidin-2-one] it was 35 nM; in that of `Cc1nnn(-c2ccc(F)cc2)c1COc1ccc2c(n1)CCN(C(=O)C1CCC(=O)N(C)C1)C2` (centres unmarked) [Example 46, 5-(2-{[1-(4-fluorophenyl)-4-methyl-1H-1,2,3-triazol-5-yl]methoxy}-5,6,7,8-tetrahydro-1,6-naphthyridine-6-carbonyl)-1-methylpiperidin-2-one], 84 nM.
Turning to `Cc1onc(-c2ccc(F)cc2)c1COc1ccc2c(n1)CCN(C(=O)NC1CCOC1)C2` (centres unmarked) [Example 86, 2-{[3-(4-fluorophenyl)-5-methyl-1,2-oxazol-4-yl]methoxy}-N-(oxolan-3-yl)-5,6,7,8-tetrahydro-1,6-naphthyridine-6-carboxamide], the Ki worked out at 6.5 nM.
In the case of `Cc1nnn(-c2ccc(F)cc2)c1COc1ccc2c(n1)CCN(C(=O)c1cccnc1)C2` [Example 39, 2-{[1-(4-fluorophenyl)-4-methyl-1H-1,2,3-triazol-5-yl]methoxy}-6-(pyridine-3-carbonyl)-5,6,7,8-tetrahydro-1,6-naphthyridine] it was 24 nM; in that of `Cc1onc(-c2ccc(F)cc2)c1COc1ccc2c(n1)CCN(C(=O)N1CCCC1)C2` [Example 84, 2-{[3-(4-fluorophenyl)-5-methyl-1,2-oxazol-4-yl]methoxy}-6-(pyrrolidine-1-carbonyl)-5,6,7,8-tetrahydro-1,6-naphthyridine], 8.9 nM.
The result for `Cc1nnn(-c2ccc(F)cc2)c1COc1ccc2c(n1)CCN(C(=O)N1CCOCC1)C2` [Example 80, 2-{[1-(4-fluorophenyl)-4-methyl-1H-1,2,3-triazol-5-yl]methoxy}-6-(morpholine-4-carbonyl)-5,6,7,8-tetrahydro-1,6-naphthyridine] reads 38 nM; that for `Cc1nnn(-c2ccc(F)cc2)c1COc1ccc2c(n1)CN(C(=O)CF)C2` [Example 54, 2-fluoro-1-(2-{[1-(4-fluorophenyl)-4-methyl-1H-1,2,3-triazol-5-yl]methoxy}-5,7-dihydro-6H-pyrrolo[3,4-b]pyridin-6-yl)ethanone], 5.3 nM; that for `COCC(=O)N1CCc2nc(OCc3c(C)nnn3-c3ccc(Cl)cc3)ccc2C1` [Example 42, 1-(2-{[1-(4-chlorophenyl)-4-methyl-1H-1,2,3-triazol-5-yl]methoxy}-5,6,7,8-tetrahydro-1,6-naphthyridin-6-yl)-2-methoxyethan-1-one], 13 nM.
The result for `Cn1nnc(-c2ccc(F)cc2)c1COc1ccc2c(n1)CN(C(=O)C1CCCO1)C2` (centres unmarked) [Example 73, 4-(4-fluorophenyl)-1-methyl-5-({[6-(oxolane-2-carbonyl)-5H,6H,7H-pyrrolo[3,4-b]pyridin-2-yl]oxy}methyl)-1H-1,2,3-triazole] reads 18 nM.
With `CCN1CC(C(=O)N2CCc3nc(OCc4c(C)nnn4-c4ccc(F)cc4)ccc3C2)CC1=O` (centres unmarked) [Example 43, 1-ethyl-4-(2-{[1-(4-fluorophenyl)-4-methyl-1H-1,2,3-triazol-5-yl]methoxy}-5,6,7,8-tetrahydro-1,6-naphthyridine-6-carbonyl)pyrrolidin-2-one], the Ki stood at 30 nM.
The result for `Cc1nnn(-c2ccc(F)cc2)c1COc1ccc2c(n1)CCN(C(=O)c1ccc(C(F)(F)F)nc1)C2` [Example 37, 2-{[1-(4-fluorophenyl)-4-methyl-1H-1,2,3-triazol-5-yl]methoxy}-6-[6-(trifluoromethyl)pyridine-3-carbonyl]-5,6,7,8-tetrahydro-1,6-naphthyridine] reads 69 nM; that for `Cc1nnn(-c2ccc(Cl)cc2)c1COc1ccc2c(n1)CCN(C(=O)C1CCOCC1)C2` [Example 32, 2-{[1-(4-chlorophenyl)-4-methyl-1H-1,2,3-triazol-5-yl]methoxy}-6-(oxane-4-carbonyl)-5,6,7,8-tetrahydro-1,6-naphthyridine], 22 nM.
For the compound `Cc1onc(-c2ccc(F)cc2)c1COc1ccc2c(n1)CCN(C(=O)c1ccno1)C2` [Example 3, 2-{[3-(4-fluorophenyl)-5-methyl-1,2-oxazol-4-yl]methoxy}-6-(1,2-oxazole-5-carbonyl)-5,6,7,8-tetrahydro-1,6-naphthyridine], the Ki was found to be 5 nM.
The result for `Cc1nnn(-c2ccc(F)cc2)c1COc1ccc2c(n1)CN(C(=O)c1cccnc1)C2` [Example 65, 3-(2-{[1-(4-fluorophenyl)-4-methyl-1H-1,2,3-triazol-5-yl]methoxy}-5H,6H,7H-pyrrolo[3,4-b]pyridine-6-carbonyl)pyridine] reads 28 nM; that for `Cc1nnn(-c2ccc(F)cc2)c1COc1ccc2c(n1)CCN(C(=O)c1cccc(Cl)c1)C2` [Example 27, 6-(3-chlorobenzoyl)-2-{[1-(4-fluorophenyl)-4-methyl-1H-1,2,3-triazol-5-yl]methoxy}-5,6,7,8-tetrahydro-1,6-naphthyridine], 137 nM.
In the case of `Cc1nnn(-c2ccc(F)cc2)c1COc1ccc2c(n1)CN(C(=O)C(F)F)C2` [Example 53, 2,2-difluoro-1-(2-{[1-(4-fluorophenyl)-4-methyl-1H-1,2,3-triazol-5-yl]methoxy}-5,7-dihydro-6H-pyrrolo[3,4-b]pyridin-6-yl)ethanone], the Ki was 11 nM.
On to `CCC(=O)N1CCc2nc(OCc3c(C)nnn3-c3ccc(F)cc3)ccc2C1` [Example 24, 1-(2-{[1-(4-fluorophenyl)-4-methyl-1H-1,2,3-triazol-5-yl]methoxy}-5,6,7,8-tetrahydro-1,6-naphthyridin-6-yl)propan-1-one], for which the Ki stood at 46 nM.
The result for `Cc1nnn(-c2ccc(F)cc2)c1COc1ccc2c(n1)CCN(C(=O)N1CCCC1)C2` [Example 77, 2-{[1-(4-fluorophenyl)-4-methyl-1H-1,2,3-triazol-5-yl]methoxy}-6-(pyrrolidine-1-carbonyl)-5,6,7,8-tetrahydro-1,6-naphthyridine] reads 66 nM; that for `Cc1nnn(-c2ccc(F)cc2)c1COc1ccc2c(n1)CCN(C(=O)c1ccno1)C2` [Example 20, 2-{[1-(4-fluorophenyl)-4-methyl-1H-1,2,3-triazol-5-yl]methoxy}-6-(1,2-oxazole-5-carbonyl)-5,6,7,8-tetrahydro-1,6-naphthyridine], 24 nM.
The result for `CC(=O)N1Cc2ccc(OCc3c(C)nnn3-c3ccc(Cl)cc3)nc2C1` [Example 60, 1-(2-{[1-(4-chlorophenyl)-4-methyl-1H-1,2,3-triazol-5-yl]methoxy}-5,7-dihydro-6H-pyrrolo[3,4-b]pyridin-6-yl)ethanone] reads 1.2 nM; that for `Cc1nnn(-c2ccc(F)cc2)c1COc1ccc2c(n1)CN(C(=O)C(C)C)C2` [Example 58, 1-(2-{[1-(4-fluorophenyl)-4-methyl-1H-1,2,3-triazol-5-yl]methoxy}-5H,6H,7H-pyrrolo[3,4-b]pyridin-6-yl)-2-methylpropan-1-one], 13 nM; that for `Cc1nnn(-c2ccc(F)cc2)c1COc1ccc2c(n1)CN(C(=O)C1CCC1)C2` [Example 57, 5-[({6-cyclobutanecarbonyl-5H,6H,7H-pyrrolo[3,4-b]pyridin-2-yl}oxy)methyl]-1-(4-fluorophenyl)-4-methyl-1H-1,2,3-triazole], 14 nM.
